Data on 20 molecules can be found in patent publication US10669268B2, “Bicyclic derivatives” (Hoffmann-La Roche Inc., priority 2012, dated 2020).

In this experiment the target is ATX (human His-tagged) (Homo sapiens (Human), UniProt Q13822). Briefly: Human ATX enzyme inhibition assay (fluorescence quenching, MR121 substrate). Format: biochemical. The conditions noted are these: 30 nM ATX, 1 μM MR121 substrate, 30° C., pH 8.0. The gist of the method:
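Tris-HCl buffer at pH 8.0 contained 140 mM NaCl, 5 mM KCl, 1 mM each CaCl2 and MgCl2, and 0.01% Triton X-100. The MR121 substrate (1 μM final) was incubated with enzyme for 15 min at 30 °C, and activity was read by fluorescence quenching.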
For orientation: IC50 means the concentration at which inhibition is half-maximal. The low end stands for inhibition by little substance, the high end for a need for much substance. As for `CS(=O)(=O)c1cc(Cl)cc(COC(=O)N2CC[C@@H]3CN(C(=O)c4ccc5[nH]nnc5c4)C[C@@H]3CC2)c1` [Example 4.06, (3aS,8aR)-2-(1H-benzotriazole-5-carbonyl)-octahydro-pyrrolo[3,4-d]azepine-6-carboxylic acid 3-chloro-5-methanesulfonyl-benzyl ester], inhibition was half-maximal at 0.012 µM (IC50).
Molecule `CS(=O)(=O)c1cc(COC(=O)N2C[C@@H]3CN(C(=O)c4ccc5[nH]nnc5c4)C[C@@H]3C2)cc(C(F)(F)F)c1` [Example 4.07, (3aS,6aR)-5-(1H-benzotriazole-5-carbonyl)-hexahydro-pyrrolo[3,4-c]pyrrole-2-carboxylic acid 3-methanesulfonyl-5-trifluoromethyl-benzyl ester] came in with an IC50 of 0.016 µM.
For the molecule `CS(=O)(=O)c1cc(Cl)cc(COC(=O)N2C[C@@H]3CN(C(=O)c4ccc5[nH]nnc5c4)CC[C@H]3C2)c1` [Example 4.09, (3aS,7aR)-5-(1H-benzotriazole-5-carbonyl)-octahydro-pyrrolo[3,4-c]pyridine-2-carboxylic acid 3-chloro-5-methanesulfonyl-benzyl ester], 0.049 µM corresponded to half-maximal inhibition (IC50). This IC50 is about 3.1-fold higher than that of the molecule before.
As for `O=C(OC1(c2cccc(Cl)c2)CC1)N1C[C@@H]2CN(C(=O)c3ccc4[nH]nnc4c3)C[C@@H]2C1` [Example 4.12, (3aS,6aR)-5-(1H-benzotriazole-5-carbonyl)-hexahydro-pyrrolo[3,4-c]pyrrole-2-carboxylic acid 1-(3-chloro-phenyl)-cyclopropyl ester], the figure is 1.48 µM; as for `O=C(OCC1C2CCCCC21)N1C[C@@H]2CN(C(=O)c3ccc4[nH]nnc4c3)C[C@@H]2C1` (stereo partly drawn) [Example 4.13, (3aS,6aR)-5-(1H-benzotriazole-5-carbonyl)-hexahydro-pyrrolo[3,4-c]pyrrole-2-carboxylic acid bicyclo[4.1.0]hept-7-ylmethyl ester], 2.91 µM.
Take `O=C(OCC1C2CC3CC(C2)CC1C3)N1C[C@@H]2CN(C(=O)c3ccc4[nH]nnc4c3)C[C@@H]2C1` (stereo partly drawn) [Example 4.14, (3aS,6aR)-5-(1H-benzotriazole-5-carbonyl)-hexahydro-pyrrolo[3,4-c]pyrrole-2-carboxylic acid adamantan-2-ylmethyl ester]: inhibition was half-maximal at 4.19 µM (IC50). The IC50 values of the last two molecules are within 1.5-fold of each other.
To `O=C(OCCC1C2CC3CC(C2)CC1C3)N1C[C@@H]2CN(C(=O)c3ccc4[nH]nnc4c3)C[C@@H]2C1` (stereo partly drawn) [Example 4.16, (3aS,6aR)-5-(1H-benzotriazole-5-carbonyl)-hexahydro-pyrrolo[3,4-c]pyrrole-2-carboxylic acid 2-adamantan-2-yl-ethyl ester] belongs 0.398 µM; to `O=C(OCCC12CC3CC(CC(C3)C1)C2)N1C[C@@H]2CN(C(=O)c3ccc4[nH]nnc4c3)C[C@@H]2C1` [Example 4.17, (3aS,6aR)-5-(1H-benzotriazole-5-carbonyl)-hexahydro-pyrrolo[3,4-c]pyrrole-2-carboxylic acid 2-adamantan-1-yl-ethyl ester], 0.799 µM.
`O=C(OCC12CC3CC(CC(C3)C1)C2)N1C[C@@H]2CN(C(=O)c3ccc4[nH]nnc4c3)C[C@@H]2C1` [Example 4.18, (3aS,6aR)-5-(1H-benzotriazole-5-carbonyl)-hexahydro-pyrrolo[3,4-c]pyrrole-2-carboxylic acid adamantan-1-ylmethyl ester] registered an IC50 of 5.62 µM. This IC50 lies about 7-fold higher than the previous one.
To `O=C(OCC1CCCCC1)N1C[C@@H]2CN(C(=O)c3ccc4[nH]nnc4c3)C[C@@H]2C1` [Example 4.19, (3aS,6aR)-5-(1H-benzotriazole-5-carbonyl)-hexahydro-pyrrolo[3,4-c]pyrrole-2-carboxylic acid cyclohexyl methyl ester] belongs 1.58 µM.
As for `COC(c1cccc(COC(=O)N2C[C@@H]3CN(C(=O)c4ccc5[nH]nnc5c4)C[C@@H]3C2)c1)C(F)(F)F` (stereo partly drawn) [Example 4.20, cis-5-(1H-benzotriazole-5-carbonyl)-hexahydro-pyrrolo[3,4-c]pyrrole-2-carboxylic acid 3-(2,2,2-trifluoro-1-methoxy-ethyl)-benzyl ester], the figure is 0.722 µM; as for `O=C(OCc1cccc(C(O)C(F)(F)F)c1)N1C[C@@H]2CN(C(=O)c3ccc4[nH]nnc4c3)C[C@@H]2C1` (stereo partly drawn) [Example 4.21, cis-5-(1H-benzotriazole-5-carbonyl)-hexahydro-pyrrolo[3,4-c]pyrrole-2-carboxylic acid 3-(2,2,2-trifluoro-1-hydroxy-ethyl)-benzyl ester], 3.48 µM; as for `O=C(OCCC1CCCCC1)N1C[C@@H]2CN(C(=O)c3ccc4[nH]nnc4c3)C[C@@H]2C1` [Example 4.22, (3aR,6aS)-2-cyclohexylethyl 5-(1H-benzo[d][1,2,3]triazole-5-carbonyl)hexahydropyrrolo[3,4-c]pyrrole-2(1H)-carboxylate], 1.38 µM.
To `O=C(OCc1cc(F)cc(OC(F)(F)F)c1)N1C[C@@H]2CN(C(=O)c3ccc4[nH]nnc4c3)C[C@@H]2C1` [Example 4.23, (3aS,6aR)-5-(1H-benzotriazole-5-carbonyl)-hexahydro-pyrrolo[3,4-c]pyrrole-2-carboxylic acid 3-fluoro-5-trifluoromethoxy-benzyl ester] belongs 0.017 µM; to `N#Cc1cc(Cl)cc(COC(=O)N2C[C@@H]3CN(C(=O)c4ccc5[nH]nnc5c4)C[C@@H]3C2)c1` [Example 4.24, (3aR,6aS)-3-chloro-5-cyanobenzyl 5-(1H-benzo[d][1,2,3]triazole-5-carbonyl)hexahydropyrrolo[3,4-c]pyrrole-2(1H)-carboxylate], 0.056 µM.
As to `O=C(OCc1cccc(OC(F)(F)F)c1)N1C[C@@H]2CN(C(=O)c3ccc4[nH]nnc4c3)C[C@@H]2C1` [Example 4.25, (3aS,6aR)-5-(1H-benzotriazole-5-carbonyl)-hexahydro-pyrrolo[3,4-c]pyrrole-2-carboxylic acid 3-trifluoromethoxy-benzyl ester], the IC50 was 0.122 µM.
To `O=C(OCc1cc(F)cc(C(F)(F)F)c1)N1C[C@@H]2CN(C(=O)c3ccc4[nH]nnc4c3)C[C@@H]2C1` [Example 4.26, (3aS,6aR)-5-(1H-benzotriazole-5-carbonyl)-hexahydro-pyrrolo[3,4-c]pyrrole-2-carboxylic acid 3-fluoro-5-trifluoromethyl-benzyl ester] belongs 0.051 µM.
`O=C(OCc1cc(Cl)cc(OC(F)(F)F)c1)N1C[C@@H]2CN(C(=O)c3ccc4[nH]nnc4c3)C[C@@H]2C1` [Example 4.27, (3aS,6aR)-5-(1H-benzotriazole-5-carbonyl)-hexahydro-pyrrolo[3,4-c]pyrrole-2-carboxylic acid 3-chloro-5-trifluoromethoxy-benzyl ester] gave an IC50 of 0.004 µM.
As for `O=C(OCc1ccc(F)c(OC(F)(F)F)c1)N1C[C@@H]2CN(C(=O)c3ccc4[nH]nnc4c3)C[C@@H]2C1` [Example 4.28, (3aS,6aR)-5-(1H-benzotriazole-5-carbonyl)-hexahydro-pyrrolo[3,4-c]pyrrole-2-carboxylic acid 4-fluoro-3-trifluoromethoxy-benzyl ester], the figure is 0.123 µM.
As for `N#Cc1cc(F)cc(COC(=O)N2C[C@@H]3CN(C(=O)c4ccc5[nH]nnc5c4)C[C@@H]3C2)c1` [Example 4.29, (3aR,6aS)-3-cyano-5-fluorobenzyl 5-(1H-benzo[d][1,2,3]triazole-5-carbonyl)hexahydropyrrolo[3,4-c]pyrrole-2(1H)-carboxylate], the figure is 0.643 µM.
